Columns and labels:
Format in all cases: in vivo, Swiss albino mice
[1] = test system: mice; test: Forced swim test after reserpine administration
Procedure: Reserpine Antagonism Depletion of biogenic amines in brain induces not only catalepsy but also hypothermia in rodents. The decrease of body temperature induced by reserpine is antagonized by antidepressants, MAO-inhibitors and central stimulants. Reserpine also decreases the levels of brain neuroamines like serotonin. […] Forced Swim Test after Reserpine Administration Male Swiss albino mice weighing 25-30 g would be used. All the animals would be Pre trained individually to swim for 15 minutes in vertical plexiglass cylinder (25×23 cm) containing 12 cm of water maintained at 25° C. They would be injected with 5 mg/kg reserpine i.p. after 20 hr of pretraining.

[2] = test system: mice; test: Locomotor activity test after reserpine administration
Procedure: The intra-peritoneal administration of reserpine (5 mg/kg, i.p.) in mice leads to reduce locomotor activity which can be antagonized by antidepressants, MAO-inhibitors and central stimulants. Male Swiss albino mice weighing 25-30 g would be used.

[3] = test system: mice; test: Tail suspension test in mice; settings: 64 mg/kg p.o.
Text: Effect of Test Compound on Tail Suspension in Mice
This test is used to evaluate potential antidepressants by determining the percentage decrease in immobility in rodents. […] Clinically effective anti-dependents reduce the immobility that mice display after active and unsuccessful attempts to escape when suspended by tail.
Swiss albino mice of either sex weighing 25-30 g would be housed in plastic cages for at least 10 days prior to testing. Animals would be allowed to adapt to the testing environment for 1 hr before testing. […] For the test, the mice would be suspended on the edge of a shelf 58 cm above a tabletop by adhesive tape placed approximately 1 cm from the tip of the tail. The duration of immobility would be recorded for a period of 6 min continuously. Mice are considered immobile when they hang passively and completely motionless for at least […].
The percentage of animals showing the passive behavior is counted and compared with vehicle treated controls using various doses.

[4] = test system: mice; test: Locomotor activity in mice (Actophotometer)
Procedure: Effect of Test Compound on Locomotor Activity in Mice This test is conducted to rule out the sedative aspect of the anti-depressants. Besides, it can also eliminate certain muscle relaxant effects of the drug. Swiss albino mice are tested in a locomotors chamber with laser sensors to check their movements. The locomotors score is a direct function of the mobility of the animal. Decrease in mobility could be due to sedative effect and muscle relaxant effect. Swiss albino mice of either sex weighing 25-30 g would be housed in plastic cages for at least 10 days prior to testing. Animals would be allowed to adapt to the testing environment for 1 hr before testing. […] For the test the mice would be individually placed in Actophotometer.

[5] = test system: mice; test: Forced swim test; settings: 100 mg/kg p.o.
Procedure: Mice forced to swim in a restricted space from which they cannot escape are induced to a characteristic behavior of immobility.
Male Swiss albino mice weighing 25-30 g would be brought into the laboratory at least one day before the experiment and would be housed separately in cages. Mice would be individually forced to swim inside a vertical Plexiglas cylinder (25×23 cm) containing 12 cm of water maintained at 25° C.
After 2-3 min activity begins to subside and to be interspersed with phases of immobility or floating of increasing length. After 5-6 min immobility reaches a plateau where the mice remain immobile for approximately 80% of the time. After 15 min in the water the mice would be removed and would be allowed to dry in a heated enclosure (32° C.) before being returned to their home cages. They would again be placed in the cylinder 24 hr later and the total duration of immobility would be counted for the last 4 min of 6 min test session. An animal is judged to be immobile whenever it remains floating passively in the water in a slightly hunched but upright position, its nose just above the surface.

[6] = test system: re uptake of serotonin; test: 5-Hydroxytryptophan (L 5-HTP) potentiation in mice; settings: 64 mg/kg p.o.
Procedure: 5-Hydroxytryptophan (L 5-HTP) Potentiation in Mice
Several antidepressant agents potentiate serotonin effects by a block of the re uptake of serotonin. 5-Hydroxytryptophan is used as the precursor of serotonin.
Groups of 6 Swiss albino mice (25-30 g) would be used. […] The mice would be then placed into glass bell jars and the number of head twitches would be counted in five 2-min intervals (between 14 and 16, 24 and 26, 34 and 36, 44 and 46 and 54 and 56 min).

SMILES | TOTAL IMMOBILITY TIME ([1]; reserpine 5 mg/kg i.p. alone) [s] | TOTAL LOCOMOTOR ACTIVITY COUNTS ([2]; reserpine 5 mg/kg i.p. alone) | TOTAL IMMOBILITY TIME ([3]; 60 min before test, 6 min recording) [s] | % DECREASE IN IMMOBILITY ([3]; vs vehicle group) [%] | TOTAL LOCOMOTOR ACTIVITY COUNTS ([4]; 64 mg/kg p.o., 60 min before test, 10 min count) | % INCREASE IN LOCOMOTOR ACTIVITY ([4]; 64 mg/kg p.o., vs vehicle group) [%] | sedative effect (in words) ([4]; mice, locomotor activity test) | TOTAL IMMOBILITY TIME ([5]; one hour before test, last 4 min of 6 min session) [s] | % DECREASE IN IMMOBILITY ([5]; vs vehicle group) [%] | TOTAL IMMOBILITY TIME ([1]; 100 mg/kg oral, 4 h after reserpine 5 mg/kg i.p., 6 min swim) [s] | % DECREASE IN IMMOBILITY ([1]; 100 mg/kg oral, vs reserpine group) [%] | % INCREASE IN LOCOMOTOR ACTIVITY ([2]; 64 mg/kg oral, vs reserpine group) [%] | TOTAL NO OF HEAD TWITCHES MEAN ± SEM ([6]; 60 min before 75 mg/kg i.p. 5-HTP) | % INCREASE IN NO OF HEAD TWITCHES ([6]; vs vehicle group) [%]
COC(=O)[C@H]1[C@H]2C[C@@H]3c4[nH]c5cc(OC)ccc5c4CCN3C[C@H]2C[C@@H](OC(=O)c2cc(OC)c(OC)c(OC)c2)[C@@H]1OC [Reserpine] | 221.60 ± 6.793 | 121.17 ± 06.112 |  |  |  |  |  |  |  |  |  |  |  | 
CN(C)CCCN1c2ccccc2CCc2ccccc21 [Imipramine] |  |  | 90.90 ± 7.690 | 51.88 | 127.00 ± 06.90 | −38.80 | induces sedation | 45.17 ± 4.450 | 71.44 | 063.57 ± 3.320 | 71.24 | 079.91 | 13.25 ± 2.477 | −38.73

— patent publication US20080194499A1, “Composition for selective serotonin reuptake inhibition and process thereof” (priority 2007, published 2008)
